Reference: the NIST ThermoML archive (doi:10.1007/s10765-010-0886-6)
“And” between values parts separate entries of the source, which are not always exact repeats. Equal values may be shown once. ± gives the expanded uncertainty stated by the source.

Settings: gamma-densimeter

**Q.** With `Fc1cc(F)c(F)c(F)c1F` [pentafluorobenzene] as the compound, how does the mass density (293.47 K, Liquid) read?
**A.** 1525.2 ± 3 kg/m3

**Q.** And the mass density (314 K, Gas)?
**A.** 1.13 kg/m3

**Q.** And the mass density (314 K, Liquid)?
**A.** 1483.8 ± 3 kg/m3

**Q.** And the mass density (334 K, Liquid)?
**A.** 1441.8 ± 3 kg/m3

**Q.** What about the mass density (353.98 K, Liquid) of the same compound?
**A.** 1399.8 ± 3 kg/m3

**Q.** And the mass density (374.24 K, Liquid)?
**A.** 1353.6 ± 3 kg/m3

**Q.** What about the mass density (393.95 K, Gas) of the same compound?
**A.** 15.9 ± 1.5 kg/m3

**Q.** What about the mass density (393.95 K, Liquid) of the same compound?
**A.** 1307.6 ± 3 kg/m3

**Q.** What about the mass density (413.94 K, Gas) of the same compound?
**A.** 24.8 ± 2 kg/m3 and 24.9 ± 2 kg/m3

**Q.** What about the mass density (413.94 K, Liquid) of the same compound?
**A.** 1257.5 ± 3 kg/m3

**Q.** And the mass density (413.95 K, Gas)?
**A.** 24.7 ± 2 kg/m3

**Q.** And the mass density (433.98 K, Gas)?
**A.** 38.6 ± 2.5 kg/m3

**Q.** What about the mass density (433.98 K, Liquid) of the same compound?
**A.** 1203 ± 3 kg/m3

**Q.** What about the mass density (454.02 K, Gas) of the same compound?
**A.** 58.3 ± 2.5 kg/m3

**Q.** What about the mass density (454.02 K, Liquid) of the same compound?
**A.** 1142.5 ± 3 kg/m3

**Q.** And the mass density (473.98 K, Gas)?
**A.** 87.1 ± 2.5 kg/m3

**Q.** And the mass density (473.98 K, Liquid)?
**A.** 1072.2 ± 3 kg/m3

**Q.** What about the mass density (493.99 K, Gas) of the same compound?
**A.** 131.1 ± 3 kg/m3

**Q.** And the mass density (493.99 K, Liquid)?
**A.** 986.7 ± 3 kg/m3

**Q.** What about the mass density (504.08 K, Gas) of the same compound?
**A.** 163.1 ± 3 kg/m3

**Q.** And the mass density (504.08 K, Liquid)?
**A.** 933.6 ± 3.1 kg/m3

**Q.** What about the mass density (514.2 K, Gas) of the same compound?
**A.** 208.7 ± 3.1 kg/m3

**Q.** And the mass density (514.2 K, Liquid)?
**A.** 866.1 ± 3.1 kg/m3

**Q.** What about the mass density (524.52 K, Gas) of the same compound?
**A.** 287.7 ± 3.1 kg/m3

**Q.** What about the mass density (524.52 K, Liquid) of the same compound?
**A.** 764.6 ± 3.2 kg/m3

**Q.** What about the Critical temperature (Liquid) of the same compound?
**A.** 531.04 ± 0.2 K
